Data on 70 compounds can be found in patent US20040152739A1, “Acyclic pyrazole compounds for the inhibition of mitogen activated protein kinase-activated protein kinase-2” (priority 2002, published 2004).

pIC50: −log10 of the molar value. Structures can show the parent of a compound that is named as a salt.

MK-2, sequence (P49137 whole entry, species assumed): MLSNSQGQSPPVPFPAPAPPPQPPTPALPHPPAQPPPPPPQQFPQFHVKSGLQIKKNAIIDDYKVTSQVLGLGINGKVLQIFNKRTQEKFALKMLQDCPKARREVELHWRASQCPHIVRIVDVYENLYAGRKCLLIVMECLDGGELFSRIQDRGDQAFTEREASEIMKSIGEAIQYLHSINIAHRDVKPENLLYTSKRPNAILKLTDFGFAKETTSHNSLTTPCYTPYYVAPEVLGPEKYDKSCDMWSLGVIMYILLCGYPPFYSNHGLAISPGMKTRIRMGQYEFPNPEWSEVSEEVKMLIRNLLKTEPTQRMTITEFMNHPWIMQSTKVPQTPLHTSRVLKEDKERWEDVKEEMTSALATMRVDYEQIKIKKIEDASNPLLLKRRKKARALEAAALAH

This test concerns the target MK-2 (Homo sapiens, UniProt P49137). The test is described as follows: Determination of MK-2 IC50 (anion exchange resin capture assay, HSP-peptide phosphorylation). The note with it: read-out: MK-2 Avg. IC50. It is filed as biochemical.
Description: The phosphorylation of HSP-peptide ([sequence]) by MAPKAPK2 was measured using an anion exchange resin capture assay method. […] The reaction was terminated and [γ^33P]ATP was removed from solution by the addition of 150 μl of AG 1×8 ion exchange resin in 900 mM sodium formate pH 3.0. A 50 μl aliquot of head volume was removed from the quenched reaction mixture and added to a 96-well plate, 150 μl of Microscint-40 (Packard) was added and the amount of phosphorylated-peptide was determined. Allow the Microscint to sit in the plates for 60 minutes prior to counting.
Compounds are evaluated as potential inhibitors of the MK2 kinase by measuring their effects on MK2 phosphorylation of the peptide substrate. Compounds may be screened initially at two concentrations prior to determination of IC50 values. Screening results are expressed as percent inhibition at the concentrations of compound tested. For IC50 value determinations, compounds are tested at six concentrations in ten-fold serial dilutions with each concentration tested in triplicate. Results are expressed as IC50 values in micromolar. The assay is performed at a final concentration of 2% DMSO.
Compounds are evaluated as potential inhibitors of the MK-2 kinase by measuring their effects on MK-2 phosphorylation of the peptide substrate. Compounds may be screened initially at two concentrations prior to determination of IC50 values. Screening results are expressed as percent inhibition at the concentrations of compound tested. For IC50 value determinations, compounds are tested at six concentrations in ten-fold serial dilutions with each concentration tested in triplicate. Results are expressed as IC50 values in micromolar. The assay is performed at a final concentration of 2% DMSO.
What is called pIC50 is the negative decadic logarithm of the IC50, by convention in mol/L. Regarding “2-[2-(2H-1,2,3-triazol-2-yl)pyridin-4-yl]-6,7- dihydropyrazolo[1,5-a]pyrazin-4(5H)-one compound with 2-[2-(1H-1,2,3-triazol-1- yl)pyridin-4-yl]-6,7-dihydropyrazolo[1,5- a]pyrazin-4(5H)-one (1:1) [Example 109]”, the pIC50 was 5.28.
Take `NCCn1nc(-c2ccnc(-c3cnc4ccccc4c3)c2)cc1C(=O)O` [Example 1, dihydrochloride]: the pIC50 was 7.57.
Then `NCCCn1nc(-c2ccnc(-c3cccc([N+](=O)[O-])c3)c2)cc1C(=O)O` [Example 2, dihydrochloride], with 7.40.
For the compound `NCC1Cn2nc(-c3ccnc(-c4cnc5ccccc5c4)c3)cc2C(=O)N1` (stereo not shown) [Example 3, trifluoroacetate], the pIC50 was 7.32.
`O=C1NC(CO)Cn2nc(-c3ccnc(-c4cnc5ccccc5c4)c3)cc21` (stereo not shown) [Example 6]: the negative logarithm of the IC50 (pIC50) was 7.21.
As to `NCCCn1nc(-c2ccnc(-c3cnc4ccccc4c3)c2)cc1C(=O)O` [Example 7], the pIC50 was 7.16.
The same measure for `NCCCn1nc(-c2ccnc(-c3ccc(O)cc3)c2)cc1C(=O)O` [Example 8]: 6.99.
`NCCn1nc(-c2ccnc(-c3cccc([N+](=O)[O-])c3)c2)cc1C(=O)O` [Example 9]: the pIC50 is 6.96.
For the compound `CN(C)c1ccc(-c2cc(-c3cc(C(=O)O)n(CCN)n3)ccn2)cc1` [Example 10], the pIC50 was 6.93.
Then `NCCn1nc(-c2ccnc(-c3ccc(OC(F)(F)F)cc3)c2)cc1C(=O)O` [Example 11], with 6.79; and `COc1ccc(-c2cc(-c3cc(C(=O)O)n(CCN)n3)ccn2)cc1` [Example 12, trifluoroacetate], with 6.77.
Turning to `O=C1NCCn2nc(-c3ccnc(-c4cccc([N+](=O)[O-])c4)c3)cc21` [Example 13, dihydrochloride], the pIC50 is 6.77.
Turning to `O=C1NCCn2nc(-c3ccnc(-c4ccc5ccncc5c4)c3)cc21` [Example 14], the pIC50 is 6.71.
For `COc1ccc(-c2cc(-c3cc(C(=O)O)n(CCCN)n3)ccn2)cc1` [Example 15, trifluoroacetate], the pIC50 was 6.71.
Take `O=C1NCCn2nc(-c3ccnc(-c4ccc5[nH]ncc5c4)c3)cc21` [Example 16]: the pIC50 is 6.70.
On to `O=C1NCCn2nc(-c3ccnc(/C=C/c4cccnc4)c3)cc21` [Example 18, dihydrochloride], for which the negative-log IC50 (pIC50) is 6.67.
In the case of `O=C1NCCn2nc(-c3ccnc(-c4cnc5ccccc5c4)c3)cc21` [Example 19, dihydrochloride], the pIC50 was 6.67.
`COc1cccc(-c2cc(-c3cc(C(=O)O)n(CCN)n3)ccn2)c1` [Example 20, dihydrochloride]: the pIC50 is 6.66.
In the case of `O=C1NCCn2nc(-c3ccnc(-c4ccc5ncccc5c4)c3)cc21` [Example 23, dihydrochloride], the pIC50 was 6.53.
On to `O=C(O)c1cc(-c2ccnc(/C=C/c3ccccc3)c2)nn1CCCNCCc1ccc(Br)cc1` [Example 25, trifluoroacetate], for which the pIC50 is 6.50.
For the compound `COc1ccc(-c2cc(-c3cc4n(n3)CCNC4=O)ccn2)cc1` [Example 26, dihydrochloride], the pIC50 is 6.50.
Consider `O=C1NCCn2nc(-c3ccnc(/C=C/c4ccccc4)c3)cc21` [Example 28], for which the pIC50 is 6.43.
With `O=C1NCCn2nc(-c3ccnc(-c4ccc(Cl)s4)c3)cc21` [Example 29], the negative-log IC50 (pIC50) is 6.35.
In the case of `COc1ccc(-c2cc(-c3cc4n(n3)CCNC4=O)ccn2)cc1F` [Example 30], the pIC50 is 6.33.
The same measure for `Cn1ccc2cc(-c3cc(-c4cc5n(n4)CCNC5=O)ccn3)ccc21` [Example 32]: 6.32; for `O=C1NCCn2nc(-c3ccnc(-c4cccc(F)c4)c3)cc21` [Example 33, hydrochloride]: 6.30; for `O=C1NCCn2nc(-c3ccnc(-c4cccc(O)c4)c3)cc21` [Example 35, trifluoroacetate]: 6.28.
For `O=C1NCCn2nc(-c3ccnc(-c4ccc5c(c4)CCO5)c3)cc21` [Example 36, trifluoroacetate], the pIC50 is 6.28.
As to `O=C1NCCn2nc(-c3ccnc(-c4ccc5occc5c4)c3)cc21` [Example 37, trifluoroacetate], the pIC50 is 6.27.
Consider `O=C1Cc2cc(-c3cc(-c4cc5n(n4)CCNC5=O)ccn3)ccc2N1` [Example 38, trifluoroacetate], for which the negative-log IC50 (pIC50) was 6.26.
For the compound `O=C1NCCCn2nc(-c3ccnc(-c4cnc5ccccc5c4)c3)cc21` [Example 39, trifluoroacetate], the negative logarithm of the IC50 (pIC50) is 6.24.
Then `O=C1NCCn2nc(-c3ccnc(-c4cccnc4)c3)cc21` [Example 41, dihydrochloride], with 6.23.
For the compound `O=C1NCCn2nc(-c3ccnc(-c4ccc(O)cc4)c3)cc21` [Example 42, trifluoroacetate], the pIC50 is 6.21.
As for `O=C1NCCn2nc(-c3ccnc(-c4ccc(OCCN5CCOCC5)cc4)c3)cc21` [Example 43, dihydrochloride], the negative-log IC50 (pIC50) was 6.20.
As for `O=C1NCCn2nc(-c3ccnc(-c4cccc(Cl)c4)c3)cc21` [Example 44, trifluoroacetate], the pIC50 is 6.20.
With `NCCn1nc(-c2ccncc2)cc1C(=O)O` [Example 45, trifluoroacetate], the pIC50 is 6.13.
With `CN(C)CCOc1ccc(-c2cc(-c3cc4n(n3)CCNC4=O)ccn2)cc1` [Example 46, trifluoroacetate], the pIC50 is 6.12.
`CS(=O)(=O)c1ccc(-c2cc(-c3cc4n(n3)CCNC4=O)ccn2)cc1` [Example 48, dihydrochloride]: the pIC50 is 6.09.
In the case of `O=C1NCCn2nc(-c3ccnc(-c4ccc5c(c4)CCCN5)c3)cc21` [Example 49, dihydrochloride], the pIC50 was 6.08.
For `COc1ccc(-c2cc(-c3cc4n(n3)CCNC4=O)ccn2)cn1` [Example 50, trifluoroacetate], the pIC50 is 6.06.
The same measure for `Nc1ccc(-c2cc(-c3cc4n(n3)CCNC4=O)ccn2)cc1` [Example 52, hydrochloride]: 6.04.
Then `O=Cc1c[nH]c2ccc(-c3cc(-c4cc5n(n4)CCNC5=O)ccn3)cc12` [Example 53, hydrochloride], with 6.03; and `O=C1NCCn2nc(-c3ccnc(-c4ccc(CO)cc4)c3)cc21` [Example 54, trifluoroacetate], with 6.03; and `O=C1NCCn2nc(-c3ccnc(-c4ccc5cc[nH]c5c4)c3)cc21` [Example 55, hydrochloride], with 6.03.
On to `O=C1NCCn2nc(-c3ccnc(-c4ccc5sccc5c4)c3)cc21` [Example 56, trifluoroacetate], for which the negative logarithm of the IC50 (pIC50) is 6.02.
Turning to `NC(=O)C1Cn2nc(-c3ccnc(-c4cnc5ccccc5c4)c3)cc2C(=O)N1` (stereo not shown) [Example 57, trifluoroacetate], the negative logarithm of the IC50 (pIC50) was 6.00.
Take `CCOC(=O)c1cc(-c2ccnc(-c3cnc4ccccc4c3)c2)nn1CCN` [Example 58, hydrochloride]: the negative logarithm of the IC50 (pIC50) was 5.99.
Consider `O=C1NCCn2nc(-c3ccnc(-c4ccc5c(c4)CCN5)c3)cc21` [Example 59, hydrochloride], for which the pIC50 is 5.97.
Then `COc1ccc(-c2cc(-c3cc4n(n3)CCCNC4=O)ccn2)cc1` [Example 60], with 5.96; and `O=C1NCCn2nc(-c3ccnc(-c4cccc(Cl)c4)c3)c(Cl)c21` [Example 61, 3-chloro-2-[2-(3-chlorophenyl)pyridin-4-yl]-6,7-dihydropyrazolo[1,5-a]pyrazin-4(5H)-one], with 5.95; and `O=Cc1ccc(-c2cc(-c3cc4n(n3)CCNC4=O)ccn2)cc1` [Example 62, hydrochloride], with 5.94.
As to `NCCCn1nc(-c2ccncc2)cc1C(=O)O` [Example 63], the pIC50 was 5.94.
Consider `O=C1NC(CCl)Cn2nc(-c3ccnc(-c4cnc5ccccc5c4)c3)cc21` (stereo not shown) [Example 64], for which the negative-log IC50 (pIC50) is 5.93.
As to `O=C1NCCn2nc(-c3ccnc(-c4ccco4)c3)cc21` [Example 65], the negative logarithm of the IC50 (pIC50) was 5.92.
As to `O=C1NCCCn2nc(-c3ccnc(-c4cccc([N+](=O)[O-])c4)c3)cc21` [Example 66], the pIC50 was 5.90.
For `O=C1NCCn2nc(-c3ccnc(-c4nccs4)c3)cc21` [Example 67, trifluoroacetate], the pIC50 was 5.89.
Consider `Nc1cccc(-c2cc(-c3cc4n(n3)CCNC4=O)ccn2)c1` [Example 68], for which the negative logarithm of the IC50 (pIC50) was 5.89.
Then `NCCCn1nc(-c2ccnc(-c3cccc([N+](=O)[O-])c3)c2)cc1C(N)=O` [Example 69], with 5.88; and `O=C1NCCn2nc(-c3ccnc(-n4ccnc4)c3)cc21` [Example 70, hydrochloride], with 5.87; and `O=C1NCCCn2nc(-c3ccnc(-c4ccc(O)cc4)c3)cc21` [Example 71, hydrochloride], with 5.86.
On to `O=C1NCCn2nc(-c3ccnc(-c4cccc(Cl)c4)c3)c(Br)c21` [Example 72, hydrochloride], for which the negative logarithm of the IC50 (pIC50) was 5.86.
On to `O=C1NCCn2nc(-c3ccnc(-c4ccoc4)c3)cc21` [Example 73, hydrochloride], for which the pIC50 was 5.84.
With `CN(C)c1ccc(-c2cc(-c3cc4n(n3)CCNC4=O)ccn2)cc1` [Example 74, hydrochloride], the pIC50 was 5.82.
As for `O=C1NCCn2nc(-c3ccnc(-c4ccsc4)c3)cc21` [Example 75], the pIC50 was 5.81.
Then `O=C1NCCn2nc(-c3ccnc(-c4ccc5c(c4)OCCO5)c3)cc21` [Example 76, trifluoroacetate], with 5.81.
Then `COc1cncc(-c2cc(-c3cc4n(n3)CCNC4=O)ccn2)c1` [Example 77, trifluoroacetate], with 5.77.
Turning to `CC(C)NCc1ccc(-c2cc(-c3cc4n(n3)CCNC4=O)ccn2)cc1` [Example 78], the negative-log IC50 (pIC50) is 5.76.
On to `O=C1NCCCn2nc(-c3ccnc(-c4ccc(CO)cc4)c3)cc21` [Example 79, 2-{2-[4-(hydroxymethyl)phenyl]pyridin-4-yl}-5,6,7,8-tetrahydro-4H-pyrazolo[1,5-a][1,4]diazepin-4-one], for which the pIC50 was 5.76.
On to `CN(C)CCc1ccc(-c2cc(-c3cc4n(n3)CCNC4=O)ccn2)cc1` [Example 80, hydrochloride], for which the negative-log IC50 (pIC50) is 5.70.
For the compound `O=C1NCCn2nc(-c3ccnc(-c4cncnc4)c3)cc21` [Example 81, hydrochloride], the negative logarithm of the IC50 (pIC50) was 5.70.
